Measured values: patent US11865158B2, “Process and composition matter of nanoparticle formulation for systemic treatment of sepsis” (PURDUE RESEARCH FOUNDATION, priority 2019, dated 2024)

Tests used:
[1] = system: Klebsiella pneumoniae NR-41920; assay: Effect on bacterial membrane (SEM); format: cell-based; conditions: 5×MIC for 1.5 h
Description: Effect on bacterial membrane. […] The bacteria were collected by centrifugation at 5000 rcf for 10 min, fixed in 2.5% glutaraldehyde solution at 4° C., and placed on poly-1-lysine coated coverslip. After 1 h, the coverslip was rinsed three times with water (5 min each) and incubated in 2% Osmium tetroxide for 30 min. SEM imaging was performed as described in previous section.

[2] = system: THP-1 monocytes; assay: Cytotoxicity by propidium iodide staining and flow cytometry; format: cell-based, human; conditions: equivalent to 50-150 μg/mL PMB, 24 h
Description: (§1) As a cationic polypeptide, PMB is known to be effective in neutralizing LPS as early as in 1967, but its systemic application is hampered by dose-limiting nephro- and neurotoxicity. PMB manifests the toxicity via the increased membrane permeability, resulting in increased influx of ions and water and subsequent cell swelling and lysis. To test if the toxicity can be reduced by supplying PMB as a NP-bound form, THP-1 monocytes or J774a.1 macrophages were incubated with D-TZP or free PMB at a concentration equivalent to 50-150 μg/mL PMB for 24 h, stained with propidium iodide (PI), which penetrates damaged cell membrane but not intact membrane, and analyzed with flow cytometry. […] Substantial reduction of membrane damage is attributable to the surface-bound ZWC, which provides a negatively charged cloud beyond the remit of PMB due to the large size, attenuating direct exposure of PMB to cell membrane.
(§2) Cytotoxicity of PMB and D-TZP. Cytotoxic concentration range of free PMB was first determined with THP1-XBlue-MD2-CD14 cells by the MTT assay. […] The PI fluorescence of 10,000 cells was measured with the BD Accuri C6 flow cytometer (BD Biosciences, San Jose, CA) via the FL-2 detector. Nanoparticles and cell debris were excluded by gating, but all cell population (dead or alive) was analyzed. […]

[3] = system: J774a.1 macrophages; assay: as above; format: cell-based; conditions: equivalent to 50-150 μg/mL PMB, 24 h
Description: as §1, §2

[4] = system: C57BL/6 male mice; assay: In vivo safety; conditions: dose exceeding its LD50
Description: D-TZP was intraperitoneally (IP) or intravenously (IV) injected to C57BL/6 male mice at doses equivalent to as high as 40 mg/kg PMB and 10 mg/kg PMB, respectively, much greater than the known IP and IV LD50 values of free PMB (20 mg/kg for IP and 5 mg/kg for IV). […] Higher doses have not been tested; therefore, the maximum tolerated dose of D-TZP in each route could not be defined. […] The increased tolerated dose is consistent with the reduced in vitro toxicity of D-TZP.
In vivo safety. 6-10 week-old C57BL/6 male mice were used to evaluate the safety of D-TZP and TZP in comparison with free PMB. The treatment was administered by IP (2.5-40 mg/kg) or IV (3-10 mg/kg) injection. The body weight changes were monitored daily up to 1 week. For blood chemistry and histology analysis, blood and major organs were collected at 12 h post IV injection of vehicle (5% dextrose), free PMB, D-TZP, or TZP (all equivalent to 10 mg/kg PMB). Animals were sacrificed by CO2 asphyxiation. Blood was obtained by cardiac puncture. Major organs were fixed in 10% formalin, embedded in paraffin, sectioned, and stained with hematoxylin and eosin for histological evaluation. The samples were imaged with a Nikon 90i upright microscope. To evaluate the safety of multiple intravenous injections, 5 mg/kg PMB or 10 mg/kg PMB equivalent D-TZP was given every 2 days up to 4 times total with body weight monitoring over 2 weeks.

[5] = system: LPS-induced sepsis; assay: Therapeutic efficacy in LPS-induced endotoxemia (sepsis) model; format: in vivo, C57BL/6 mice; conditions: free PMB at the respective LD50 (20 mg/kg for IP and 5 mg/kg for IV)
Description: The therapeutic efficacy of D-TZP was tested in a mouse model of sepsis. C57BL/6 male mice were given IP injection of 20 mg/kg LPS, which causes systemic inflammation similar to initial clinical features of sepsis. TZP or D-TZP was administered in three regimens:
Therapeutic efficacy in LPS-induced endotoxemia model. 6-8 week-old C57BL/6 mice (male and female) were challenged with an intraperitoneal injection of 20 mg/kg LPS solution (5% dextrose) via 20G catheter (Exel International Disposable Safelet I.V.), which causes systemic inflammation similar to initial clinical features of sepsis^17,19. […] A vehicle control (5% dextrose) or an equivalent dose of free PMB were given in the same manner for comparison. […] Buprenorphine (0.05 mg/kg) was injected subcutaneously shortly after the treatment and every 2-12 h as the signs of discomfort were observed. The body temperature was measured with a Pocket Infrared Thermometer (Braintree Scientific, Inc., Braintree, MA) at each observation, and the body weight was recorded at each observation. When an animal was found dead at the time of observation, the time of death was estimated to be in the halfway of the last two observation times. When animals were lethargic and cold at the time of observation, the animals were euthanized by CO2 asphyxiation. The mouse survival was monitored for 2 weeks.

polymyxin B [PMB]
bacterial membrane morphology by SEM [1]: induced deformation of bacterial membrane
PI fluorescence (membrane damage) [2]: dose-dependent PI fluorescence signal
PI fluorescence (membrane damage) [3]: dose-dependent PI fluorescence signal
mortality [4]: resulted in mortality
protection of challenged animals [5]: did not protect the challenged animals
